Experimental data: patent US20160102066A1, “BENZOTHIAZOLE DERIVATIVE AND ANTI-TUMOR USE THEREOF” (YANTAI UNIVERSITY, priority 2014, published 2016)

Tested on: prostate cancer RM-1 transplanted tumor
Experiment: mice prostate cancer RM-1 transplanted tumor, in vivo
Conditions: male C57/BL6 mice, i.p., Docetaxel 10 mg/kg × 3, 1-1 100 mg/kg × 4
Experimental: The experiment procedures are summarized as follows: mice who had prostate cancer RM-1 and grown well were sacrificed by cervical dislocation. Under sterile conditions, tumor mass growing well was stripped off, homogenized, diluted with physiological saline in 1:4. Each mouse was inoculated 0.2 mL of the tumor solution in the armpit and back (approximately 2*10^6 cells). On the next day; the animals were randomized into groups and the administration began. […] The dosing volume was 0.1 mL/10 g. At the same time, docetaxel control group and solvent control group were set. As for the docetaxel group, the animals were administered by intraperitoneal injection at 10 mg/kg dose, the dosing volume was 0.1 mL/10 g. After continuous administration for 10 days, the animals were sacrificed by cervical dislocation, weighed the body and the tumor, respectively. Inhibition rate of tumor growth (%) was calculated, and the results were statistically processed.

## CC(=O)O[C@@]12CO[C@@H]1C[C@H](O)[C@@]1(C)C(=O)[C@H](O)C3=C(C)[C@@H](OC(=O)[C@H](O)[C@@H](NC(=O)OC(C)(C)C)c4ccccc4)C[C@@](O)([C@@H](OC(=O)c4ccccc4)[C@H]21)C3(C)C [Docetaxel, docetaxel]
  Tumor weight: 1.77 ± 0.61 g
At sacrifice
  body weight of Animals, Final: 18.43 ± 2.17 g
baseline
  body weight of Animals, Initial: 20.00 ± 1.07 g
Versus solvent control
  Inhibition rate of tumor growth: 32%
